One assay concerns the target T1, Human IBAT (Homo sapiens, UniProt Q12908).
T1 construct: expressed in transfected cells; Puromycin-selected
T1 sequence (Q12908 1-348): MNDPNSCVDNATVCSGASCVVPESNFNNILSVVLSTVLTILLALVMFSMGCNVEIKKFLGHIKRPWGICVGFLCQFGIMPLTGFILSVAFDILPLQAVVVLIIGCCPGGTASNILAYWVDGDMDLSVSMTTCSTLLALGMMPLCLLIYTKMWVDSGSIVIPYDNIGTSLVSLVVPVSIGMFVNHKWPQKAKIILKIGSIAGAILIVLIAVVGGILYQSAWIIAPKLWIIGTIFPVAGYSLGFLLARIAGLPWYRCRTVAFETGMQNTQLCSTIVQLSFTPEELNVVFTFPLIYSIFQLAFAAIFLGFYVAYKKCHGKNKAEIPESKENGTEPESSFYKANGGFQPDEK
The experiment in a line: IBAT (h/m) assay, human IBAT-overexpressing cells, 3H-taurocholic acid uptake. The assay is classed as cell-based. To be noted: 0.25 μM 3H-taurocholic acid and 5 μM cold taurocholic acid, 20 minutes, read-out: hIBAT IC50. The procedure: IBAT (h/m) Assay Protocol
10,000 cells (Human or Mouse IBAT-overexpressing cells) were seeded in 96-wells plate (Corning CLS3809) in 200 μL MEM-alpha medium (Gibco 12571-063) supplemented with 10% FBS (Gibco 10438026) containing Puromycin (Gibco A1113803) (10 μg/mL) and incubated at 37° C. in 5% CO2 for 48 hours. After incubation, media was decanted from the wells and cells were washed two times with 300 μL of basal MEM-alpha medium (FBS-free). After decanting basal MEM-alpha medium each time, plates were tapped against paper towel to ensure maximum removal of residual media. Test inhibitor dilutions (highest test concentration being 10 μM, 3-fold serial dilution, 10 points) prepared in DMSO (Sigma D2650) were added in incubation mix (maintaining 0.2% final DMSO concentration) containing 0.25 μM 3H-taurocholic acid (ARC ART-1368) and 5 μM of cold taurocholic acid (Sigma T4009). 50 μL of incubation mix containing test inhibitors was then added to the wells (in duplicate) and the plates were incubated for 20 minutes in a CO2 incubator at 37° C. After incubation, the reaction was stopped by keeping the plates on ice water mix for 2-3 minutes and then the incubation mix was aspirated completely from the wells. The wells were washed two times with 250 μL of chilled unlabelled 1 mM taurocholic acid dissolved in HEPES (Gibco 15630080)-buffered (10 mM) HBSS (Gibco 14175079) (pH 7.4). The plates were tapped against a paper towel after every wash to ensure maximum removal of blocking buffer.
100 μL of MicroScint-20 (PerkinElmer 6013621) was added to the wells and kept overnight at room temperature before reading the plates in TopCount NXT™ Microplate Scintillation and Luminescence Counter from PerkinElmer under 3H Test protocol (set at 120 seconds reading time per well).
(§1) Preparation of Test Compound Dilutions
(§2) All test compounds were provided in powder form at room temperature. 10 mM DMSO stocks of the test compounds were prepared, aliquoted and stored at −20° C. From the 10 mM DMSO stock of the compounds, a 3-fold serial dilution in DMSO was prepared to get a total of 10 dilutions of the test compounds. 0.5 μL of this dilution in DMSO was added to 250 μL of FBS-free basal media containing 3H-taurocholic acid and cold taurocholic acid to prepare the incubation mixture.

A further assay deals with T2, Human LBAT (Homo sapiens, UniProt Q14973).
T2 construct: expressed in transfected cells; Geneticin-selected
T2 sequence (Q14973 1-349): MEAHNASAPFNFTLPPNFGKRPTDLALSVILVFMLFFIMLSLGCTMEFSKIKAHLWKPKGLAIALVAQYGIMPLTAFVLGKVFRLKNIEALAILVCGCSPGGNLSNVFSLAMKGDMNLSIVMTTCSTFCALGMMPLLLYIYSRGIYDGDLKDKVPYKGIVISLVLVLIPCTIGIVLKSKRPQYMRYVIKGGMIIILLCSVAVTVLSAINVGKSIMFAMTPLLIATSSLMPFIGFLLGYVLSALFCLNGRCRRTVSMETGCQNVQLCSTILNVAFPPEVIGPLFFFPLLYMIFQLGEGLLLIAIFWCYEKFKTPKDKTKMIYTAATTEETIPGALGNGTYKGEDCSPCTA
The experiment in a line: LBAT (h/m) assay, human LBAT-overexpressing cells, 3H-taurocholic acid uptake. It counts as cell-based. To be noted: 0.3 μM 3H-taurocholic acid and 7.5 μM cold taurocholic acid, 20 minutes, read-out: hLBAT IC50. As for the experimental part: LBAT (h/m) Assay Protocol
20,000 cells (Human or Mouse LBAT-overexpressing cells) were seeded in 96-wells plate (Corning CLS3809) in 100 μL MEM-alpha medium (Gibco 12571-063) supplemented with 10% FBS (Gibco 10438026) containing Geneticin (Gibco 10131-027) (1 mg/mL) and incubated at 37° C. in 5% CO2 for 24 hours. After incubation, media was decanted from the wells and cells were washed two times with 300 μL of basal MEM-alpha medium (FBS-free). After decanting basal MEM-alpha medium each time, plates were tapped against paper towel to ensure maximum removal of residual media.
For human LBAT, incubation mix was prepared by adding test inhibitor dilutions (3-fold serial dilution in DMSO (Sigma D2650), 10 points) in MEM-alpha (without FBS) containing 0.3 μM 3H-taurocholic acid (ARC ART-1368) and 7.5 μM cold taurocholic acid (Sigma T4009) (maintaining 0.2% final DMSO concentration). For mouse LBAT, incubation mix was prepared by adding test inhibitor dilutions (3-fold serial dilution in DMSO, 10 points) in MEM-alpha (without FBS) containing 0.3 μM 3H-taurocholic acid and 25 μM cold taurocholic acid maintaining 0.2% final DMSO concentration). 50 μL of incubation mix containing test inhibitors was then added to the wells (in duplicate) and the plates were incubated for 20 minutes in a CO2 incubator at 37° C. After incubation, the reaction was stopped by keeping the plates on ice water mix for 2-3 minutes and then the incubation mix was aspirated completely from the wells. The wells were washed two times with 250 μL of chilled unlabelled 1 mM taurocholic acid dissolved in HEPES (Gibco 15630080)-buffered (10 mM) HBSS (Gibco 14175079) (pH 7.4). The plates were tapped against a paper towel after every wash to ensure maximum removal of blocking buffer. 100 μL of MicroScint-20 (PerkinElmer 6013621) was added to the wells and kept overnight at room temperature before reading the plates in TopCount NXT™ Microplate Scintillation and Luminescence Counter from PerkinElmer under 3H Test protocol (set at 120 seconds reading time per well, with normal plate orientation).
as §1, §2

As a reminder, the IC50 is the midpoint of a concentration-inhibition curve. Turning to `CCCCC1(C)CN(c2ccccc2)c2cc(SC)c(OCC(O)C(=O)O)cc2S(=O)(=O)C1` (single isomer, unassigned) [32, diastereomer 2], the values for the IC50 at Human IBAT and on Human LBAT were 35 nM and 4080 nM, respectively.

`CCCCC1(C)CN(c2ccccc2)c2cc(SC)c(OCC(C)(O)C(=O)O)cc2S(=O)(=O)C1` (single isomer, unassigned) [33, diastereomer 1]: the values for the IC50 on Human IBAT and on Human LBAT were 123 nM and 5940 nM, respectively.

For `CCCCC1(C)CN(c2ccccc2)c2cc(SC)c(OCC(C)(O)C(=O)O)cc2S(=O)(=O)C1` (single isomer, unassigned) [33, diastereomer 2], the IC50 came to 45 nM at Human IBAT and 1410 nM at Human LBAT.

For the molecule `CCCCC1(CC)CN(c2ccccc2)c2cc(SC)c(OCC(C)(F)C(=O)O)cc2S(=O)(=O)C1` (single isomer, unassigned) [35, diastereomer 2], the 50% inhibitory concentration (IC50) came out at 13 nM at Human IBAT and 138 nM at Human LBAT.

`CCCCC1(CC)CN(c2ccccc2)c2cc(SC)c(OCC(O)C(=O)O)cc2S(=O)(=O)C1` (single isomer, unassigned) [40, diastereomer 1]: the values for the IC50 on Human IBAT and on Human LBAT were 241 nM and 1370 nM, respectively.

For `CCCCC1(CC)CN(c2ccccc2)c2cc(SC)c(OCC(O)C(=O)O)cc2S(=O)(=O)C1` (single isomer, unassigned) [40, diastereomer 2], the IC50 amounted to 24 nM on Human IBAT and 513 nM at Human LBAT.

With `CCCCC1(CC)CN(c2ccccc2)c2cc(SC)c(OCC(O)C(=O)O)cc2S(=O)(=O)C1` (single isomer, unassigned) [40, diastereomer 3], the IC50 at Human IBAT came to 2 nM; on Human LBAT, 665 nM.

As for `CCCCC1(CC)CN(c2ccccc2)c2cc(SC)c(OCC(O)C(=O)O)cc2S(=O)(=O)C1` (single isomer, unassigned) [40, diastereomer 4], the IC50 at Human IBAT was determined as 10 nM; at Human LBAT, 389 nM.

For `CCCCC1(CC)CN(c2ccc(F)cc2)c2cc(SC)c(OCC(O)C(=O)O)cc2S(=O)(=O)C1` (single isomer, unassigned) [42, diastereomer 1], the values for the IC50 on Human IBAT and on Human LBAT were 19 nM and 1290 nM, respectively.

`CCCCC1(CC)CN(c2ccc(F)cc2)c2cc(SC)c(OCC(O)C(=O)O)cc2S(=O)(=O)C1` (single isomer, unassigned) [42, diastereomer 2]: the figures for the IC50 on Human IBAT and at Human LBAT were 36 nM and 2310 nM, respectively.

On to `CCCCC1(CC)CN(c2ccc(F)cc2)c2cc(SC)c(OCC(O)C(=O)O)cc2S(=O)(=O)C1` (single isomer, unassigned) [42, diastereomer 3], for which the IC50 at Human IBAT was 0.5 nM; at Human LBAT it was 892 nM.

Take `CCCCC1(CC)CN(c2ccc(F)cc2)c2cc(SC)c(OCC(O)C(=O)O)cc2S(=O)(=O)C1` (single isomer, unassigned) [42, diastereomer 4]: the IC50 was 1 nM at Human IBAT and 689 nM on Human LBAT.

As to `CCCCC1(CC)CN(c2ccccc2)c2cc(OC)c(OCCC(=O)O)cc2S(=O)(=O)C1` (single isomer, unassigned) [44, enantiomer 1], the results for the IC50 at Human IBAT and at Human LBAT were 46 nM and > 20000 nM, respectively.

For the molecule `CCCCC1(CC)CN(c2ccccc2)c2cc(OC)c(OCCC(=O)O)cc2S(=O)(=O)C1` (single isomer, unassigned) [44, enantiomer 2], the IC50 at Human IBAT is 392 nM; at Human LBAT, > 23000 nM.

In the case of `CCCCC1(CC)CN(c2ccccc2)c2cc(SC)c(OCC(C)(O)C(=O)O)cc2S(=O)(=O)C1` (single isomer, unassigned) [48, diastereomer 1], the IC50 at Human IBAT was 56 nM; at Human LBAT, 1190 nM.

Consider `CCCCC1(CC)CN(c2ccccc2)c2cc(Br)c(OCCC(=O)O)cc2S(=O)(=O)C1` (single isomer, unassigned) [Example 3, 3-((7-bromo-3-butyl-3-ethyl-1,1-dioxido-5-phenyl-2,3,4,5-tetrahydro-1,5-benzothiazepin-8-yl)oxy)propanoic acid], for which the IC50 on Human IBAT is 241 nM; at Human LBAT it was 837 nM.

`CCCCC1(CC)CN(c2ccccc2)c2cc(Cl)c(OCCC(=O)O)cc2S(=O)(=O)C1` (single isomer, unassigned) [Example 7, 3-((3-butyl-7-chloro-3-ethyl-1,1-dioxido-5-phenyl-2,3,4,5-tetrahydro-1,5-benzothiazepin-8-yl)oxy)propanoic acid]: the IC50 on Human IBAT came to 418 nM; on Human LBAT it was 969 nM.

In the case of `CCCCC1(CC)CN(c2ccccc2)c2cc(SC)c(OCCC(=O)O)cc2S(=O)(=O)C1` (single isomer, unassigned) [Example 14, 3-((3-butyl-3-ethyl-7-(methylthio)-1,1-dioxido-5-phenyl-2,3,4,5-tetrahydro-1,5-benzothiazepin-8-yl)oxy)propanoic acid], the IC50 at Human IBAT was determined as 58 nM; on Human LBAT, 764 nM.

For `CCCCC1(CCCC)CN(c2ccccc2)c2cc(SC)c(OCC(C)(O)C(=O)O)cc2S(=O)(=O)C1` (single isomer, unassigned) [Example 20, 3-((3,3-dibutyl-7-(methylthio)-1,1-dioxido-5-phenyl-2,3,4,5-tetrahydro-1,5-benzothiazepin-8-yl)oxy)-2-hydroxy-2-methylpropanoic acid], the IC50 at Human IBAT was determined as 42 nM; on Human LBAT, 1390 nM.

As to `CCCCC1(CCCC)CN(c2ccccc2)c2cc(SC)c(OCC(C)(O)C(=O)O)cc2S(=O)(=O)C1` (single isomer, unassigned) [Example 21, 3-((3,3-dibutyl-7-(methylthio)-1,1-dioxido-5-phenyl-2,3,4,5-tetrahydro-1,5-benzothiazepin-8-yl)oxy)-2-hydroxy-2-methylpropanoic acid], the results for the IC50 on Human IBAT and at Human LBAT were 19 nM and 608 nM, respectively.
